Results: US10208049B2, “Compounds and methods of treating ocular disorders” (Case Western Reserve University, priority 2009, dated 2019)

Tests used:
Rdh8−/−Abca4−/− mice = test: SD-OCT grading of retinal degeneration in light-exposed Rdh8−/−Abca4−/− mice; type: in vivo, mouse; settings: for effectiveness in treating retinal degeneration in the mice: ABCA4−/−/RDH8−/− mice, effective = OCT score at least about 2.5 and 11-cis-retinal increase at least about 30%; for Score OCT: Rdh8−/−Abca4−/− mice, SD-OCT 7 days after 10,000 lux illumination for 30 min at 4 weeks of age, score 5 = no degeneration, 1 = severe, No Treatment 1
From the text: (§1) We tested 21 drugs containing primary amino groups to determine if they react with the aldehyde group of all-trans-RAL to reduce its toxic levels in the eye after exposure to light and prevent its condensation into toxic conjugates. […] For these experiments, we used ABCA4^−/−/RDH8^−/− mice as models for Stargardt's disease and AMD. We employed analytical methods for determining the pharmacodynamics and pharmacokinetics of candidate drugs including: HPLC/MS/MS for analysis of retinoids and histological sections and OCT for assessment of retinal pathology. The relative amount of retinoids and their composition strongly correlates with the health status of the retina. […] Methodologies for performing the analysis on ABCA4^−/−/RDH8^−/− mice is described below.
(§2) Abca4^−/− mice also were generated by standard procedures (Ingenious Targeting, Inc., Stony Brook, N.Y.). […] Rdh8^−/−Abca4^−/− mice were established by crossbreeding Abca4^−/− mice with Rdh8^−/− mice. […] PCR products were cloned and sequenced to verify their identities.
Although analytical and histological methods provide exhaustive characterization of retina, they cannot be performed in vivo. To reduce the number of sacrificed animals and time required for analysis, SD-OCT from Bioptigen (Research Triangle Park, N.C.) was employed for in vivo imaging of mouse retinas. Bioptigen OCT systems utilize a narrow single-mode beam from a wide bandwidth light source to probe the structure of retina at a higher resolution (2.0 μm) than normal OCT systems. Mice were anesthetized by intraperitoneal (IP) injection of 20 μl/g bw of 6 mg/ml ketamine and 0.44 mg/ml xylazine diluted with 10 mM sodium phosphate, pH 7.2, containing 100 mM NaCl. Pupils were dilated with 1% tropicamide. In vivo SD-OCT images were obtained from both eyes. Four pictures acquired in a B-scan mode were used to construct the final averaged images (FIG. 8).
In vivo retinal structures of Rdh8^−/−Abca4^−/− mice are imaged by SD-OCT 7 days after 10,000 lux illumination for 30 min at 4 weeks of age.

ABCA4−/−/RDH8−/− mice = test: HPLC analysis of 11-cis-retinal in eyes of ABCA4−/−/RDH8−/− mice; type: in vivo, mouse; settings: HPLC peak area of 11-cis-retinal, No Treatment 88.2
From the text: as §1, §2
All experimental procedures related to extraction, derivatization, and separation of retinoids from dissected mouse eyes were carried out under dim red light. Two whole mouse eyes were homogenized in 1 ml of 50 mM phosphate buffer, pH 7.0, containing 50% ethanol and 10 mM NH2OH. Ice-cold methanol (1 ml) was added to the homogenates 20 min after incubation at room temperature (RT), non-polar retinoids were extracted twice with 4 ml of hexane. The organic phase was collected, dried down in a SpeedVac and re-solubilized in 0.3 ml of hexane. […] Retinoids were detected at 325 nm (retinyl esters and retinols) and 350 nm (retinyl oximes) with a diode array detector. Those of interest were quantified based on the areas under their peaks calculated with the help of HP Chemstation A.03.03 software and compared with areas calculated based on known amounts of synthetic standards plotted as a standard curve.

[1] = Formation of Schiff base between retinal and selected amines (UV/Vis spectra); type: physicochemical; settings: 90% ethanol in water, 0.1 M phosphate buffer pH 7.0, 2 molar excess of amine, 1 h room temperature
Experimental: Formation of conjugates (Schiff-base) between retinal and primary amine compounds containing amino group (putative drugs) is the key mechanism to control all-trans-RAL levels in the retina and prevent retina degeneration. Stability of these conjugates is an important factor that can determine biological activity of the drugs. To standardize conditions of Schiff-base formation all reactions were performed in 90% ethanol in water buffered with 0.1 M phosphate buffer, pH 7.0. Stock solution of retinal was made up freshly in ethanol. Its final concentration was determined spectrophotometrically at 380 nm (ε=42,880). All procedures were carried out in the dark. Schiff base formation was initiated by addition of retinal stock solution to a 2 molar excess of tested amine dissolved in the reaction buffer. The reaction mixture was incubated for 1 h in room temperature.
Steady-state rate of Schiff-base formation was obtained from absorbance changes at 380 and 440 nm (510 nm for aromatic amines) corresponding to free retinal and protonated Schiff base, respectively. To investigate stability of the given retinal conjugates a mixture of HPLC purified Schiff base of selected compound and phosphatidylocholine was dried down in SpeedVac. Then, Schiff-base and lipids were overlaid with 0.1 M phosphate buffer and sonicated immediately to form liposomes. The samples were extracted with hexane following 30 min incubated in room temperature. The breakdown of Schiff-base was monitored by HPLC detection of free retinal extracted from the reaction mixture.
FIGS. 3-5 illustrate UV/Vis spectra for the FDA approved drugs. FDA approved drugs that were active readily formed a Schiff base with all-trans-RAL as evidenced by a substantial differential between spectra of unprotonated and protonated Schiff base.

For `CC(C)C[C@@H](CN)CC(=O)O` [(R)-3-(aminomethyl)-5-methylhexanoic acid], which “effectiveness in treating retinal degeneration in the mice” value (“effectiveness” for short) (Rdh8−/−Abca4−/− mice) is on record?
The value was “effective in treating retinal degeneration”.

And the “11cRAL (area)” value (ABCA4−/−/RDH8−/− mice)?
The value was 164.8.

What does the source list for `Nc1ccc(C(=O)NCC(=O)[O-])cc1.[Na+]` [Aminohippurate Sodium]?
Score OCT (Rdh8−/−Abca4−/− mice): 1; 11cRAL (area) (ABCA4−/−/RDH8−/− mice): 109.4

For `Nc1ccc(O)c(C(=O)O)c1` [Asacol], which “effectiveness” value (Rdh8−/−Abca4−/− mice) is on record?
The value was “effective in treating retinal degeneration”.

What about the “11cRAL (area)” value (ABCA4−/−/RDH8−/− mice) of the same molecule?
The value was 140.2.

For `CC(C)(S)[C@@H](N)C(=O)O` [Cuprimine], which “formation of stable Schiff-base with all-trans-RAL” value (“formation of stable Schiff-base” below) [1] is on record?
The value was “did not readily form stable Schiff-bases”.

What about the “Score OCT” value (Rdh8−/−Abca4−/− mice) of the same molecule?
The value was 1.7.

And the “11cRAL (area)” value (ABCA4−/−/RDH8−/− mice)?
The value was 118.5.

Which results are given for `Nc1ccc(S(=O)(=O)c2ccc(N)cc2)cc1` [Dapsone]?
effectiveness in treating retinal degeneration in the mice (Rdh8−/−Abca4−/− mice): effective in treating retinal degeneration; 11cRAL (area) (ABCA4−/−/RDH8−/− mice): 156.5

Which results are given for `CC(N)C12CC3CC(CC(C3)C1)C2` (stereo not drawn) [Flumadine]?
effectiveness in treating retinal degeneration in the mice (Rdh8−/−Abca4−/− mice): effective in treating retinal degeneration; 11cRAL (area) (ABCA4−/−/RDH8−/− mice): 135.3

For `N[C@@H](CC(=O)N1CCn2c(nnc2C(F)(F)F)C1)Cc1cc(F)c(F)cc1F` [Januvia], which “effectiveness” value (Rdh8−/−Abca4−/− mice) is on record?
Its value is “effective in treating retinal degeneration”.

What about the “11cRAL (area)” value (ABCA4−/−/RDH8−/− mice) of the same molecule?
Its value is 126.8.

Which “effectiveness” value (Rdh8−/−Abca4−/− mice) does the source give for `COCCCC/C(=N\OCCN)c1ccc(C(F)(F)F)cc1` [Luvox] here?
Its value is “effective in treating retinal degeneration”.

What about the “11cRAL (area)” value (ABCA4−/−/RDH8−/− mice) of the same molecule?
The value was 175.5.

Which results are given for `CC(C)C[C@H](CN)CC(=O)O` [Lyrica, (S)-3-(aminomethyl)-5-methylhexanoic acid]?
formation of stable Schiff-base with all-trans-RAL [1]: readily formed stable Schiff-bases; effectiveness in treating retinal degeneration in the mice (Rdh8−/−Abca4−/− mice): effective in treating retinal degeneration; 11cRAL (area) (ABCA4−/−/RDH8−/− mice): 166.5

Which results are given for `CC12CC3CC(C)(C1)CC(N)(C3)C2` [Nameda]?
Score OCT (Rdh8−/−Abca4−/− mice): 1.7; 11cRAL (area) (ABCA4−/−/RDH8−/− mice): 97.6

With `Nc1ccc(C(=O)O)c(O)c1` [Paser] as the molecule, how does the “formation of stable Schiff-base” value [1] read?
The value was “readily formed stable Schiff-bases”.

And the “effectiveness” value (Rdh8−/−Abca4−/− mice)?
The value was “effective in treating retinal degeneration”.

And the “11cRAL (area)” value (ABCA4−/−/RDH8−/− mice)?
Its value is 151.9.

With `Nc1ccc(C(=O)[O-])cc1.[K+]` [Potaba] as the molecule, how does the “formation of stable Schiff-base” value [1] read?
Its value is “did not readily form stable Schiff-bases”.

And the “Score OCT” value (Rdh8−/−Abca4−/− mice)?
Its value is 2.3.

And the “11cRAL (area)” value (ABCA4−/−/RDH8−/− mice)?
Its value is 90.6.

Which results are given for `NCCCC[C@H](N[C@@H](CCc1ccccc1)C(=O)O)C(=O)N1CCC[C@H]1C(=O)O` [Prinivil]?
Score OCT (Rdh8−/−Abca4−/− mice): 2.0; 11cRAL (area) (ABCA4−/−/RDH8−/− mice): 132.7

Which “formation of stable Schiff-base” value [1] does the source give for `N[C@@H]1CON=C1O` [Seromycin] here?
The value was “readily formed stable Schiff-bases”.

What about the “effectiveness” value (Rdh8−/−Abca4−/− mice) of the same molecule?
Its value is “effective in treating retinal degeneration”.

What about the “11cRAL (area)” value (ABCA4−/−/RDH8−/− mice) of the same molecule?
Its value is 159.9.

What does the source list for `NS(=O)(=O)c1cc2c(cc1Cl)N=C[N-]S2(=O)=O.[Na+]` [Sodium Diuril]?
effectiveness in treating retinal degeneration in the mice (Rdh8−/−Abca4−/− mice): effective in treating retinal degeneration; 11cRAL (area) (ABCA4−/−/RDH8−/− mice): 139.7

With `NCc1ccc(S(N)(=O)=O)cc1` [Sulfamylon] as the molecule, how does the “effectiveness” value (Rdh8−/−Abca4−/− mice) read?
The value was “effective in treating retinal degeneration”.

What about the “11cRAL (area)” value (ABCA4−/−/RDH8−/− mice) of the same molecule?
Its value is 166.1.

For `CCOC(=O)C1=C[C@@H](OC(CC)CC)[C@H](NC(C)=O)[C@@H](N)C1` [Tamiflu], which “Score OCT” value (Rdh8−/−Abca4−/− mice) is on record?
Its value is 1.3.

And the “11cRAL (area)” value (ABCA4−/−/RDH8−/− mice)?
Its value is 87.3.
